In ChEMBL document CHEMBL4819010, “Design, synthesis, and biological studies of novel 3-benzamidobenzoic acid derivatives as farnesoid X receptor partial agonist” (Eur J Med Chem, 2021):
pEC50: −log10 of the molar value. Activity calls are given as the source filed them. The calls are words filed in the database; no cut-off is given here.

Tested on: HepG2
Assay: Agonist activity at FXR (unknown origin)/human RXR heterodimer expressing in human HepG2 cells co-expressing pCMV gal assessed luciferase activity measured after 24 hrs by cell based luciferase transactivation assay relative to […]
Details: dose 3.0 µM

Row | Structure (SMILES) | Activity
1 | O=C(O)c1cccc(NC(=O)c2ccc(Oc3ccccc3)cc2)c1 | 21.2%
2 | Cc1ccccc1-c1cccc(C(=O)Nc2cccc(C(=O)O)c2)c1 | 23.1%
3 | O=C(O)c1cccc(NC(=O)c2cccc(-c3ccccc3)c2)c1 | 28.6%

Tested on: not listed separately
Assay: Agonist activity at FXR (unknown origin)/human RXR heterodimer expressing in human HepG2 cells co-expressing pCMV gal assessed luciferase activity measured after 24 hrs by cell based luciferase transactivation assay
Details: HepG2, 24 h

Row | Structure (SMILES) | pEC50
4 | O=C(O)c1cccc(NC(=O)c2ccc(Oc3ccccc3)cc2)c1 | 6.33
5 | Cc1ccccc1-c1cccc(C(=O)Nc2cccc(C(=O)O)c2)c1 | 6.41
6 | O=C(O)c1cccc(NC(=O)c2cccc(-c3ccccc3)c2)c1 | 6.71

Target: T1, Bile acid receptor (Mus musculus) (UniProt Q60641)
T1 sequence (whole entry): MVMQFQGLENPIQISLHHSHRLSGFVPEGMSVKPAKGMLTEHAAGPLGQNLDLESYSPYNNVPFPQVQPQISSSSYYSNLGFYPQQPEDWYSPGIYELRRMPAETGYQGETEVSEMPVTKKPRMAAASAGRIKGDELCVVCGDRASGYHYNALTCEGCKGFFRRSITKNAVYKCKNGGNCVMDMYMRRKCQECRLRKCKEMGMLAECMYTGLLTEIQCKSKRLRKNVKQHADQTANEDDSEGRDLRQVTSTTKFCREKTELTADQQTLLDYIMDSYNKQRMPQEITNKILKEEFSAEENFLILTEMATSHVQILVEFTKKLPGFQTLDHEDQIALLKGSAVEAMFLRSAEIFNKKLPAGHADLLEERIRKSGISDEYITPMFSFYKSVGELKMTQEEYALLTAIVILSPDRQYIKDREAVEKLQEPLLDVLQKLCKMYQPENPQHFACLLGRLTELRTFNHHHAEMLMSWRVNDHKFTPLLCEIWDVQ
Assay: In vivo agonist activity at FXR in C57BL/6 mouse assessed as inhibition of APAP-induced FXR decline at 30 mg/kg, bid ip measured after 5 days by RT-PCR method
Assay type: functional, organism-based
Details: time 5.0 day

Row | Structure (SMILES) | Activity
7 | O=C(O)c1cccc(NC(=O)c2cccc(-c3ccccc3)c2)c1 | Active

Tested on: Mus musculus
Assay: Hepatoprotective activity in APAP-induced C57BL/6 mouse liver injury model assessed as increase in SOD2 mRNA expression at 30 mg/kg, bid oral gavage measured after 5 days by qRT-PCR method
Assay type: functional, organism-based
Details: time 5.0 day

Row | Structure (SMILES) | Activity
8 | O=C(O)c1cccc(NC(=O)c2cccc(-c3ccccc3)c2)c1 | Active

Tested on: Mus musculus
Assay: Hepatoprotective activity in APAP-induced C57BL/6 mouse liver injury model assessed as decrease in hepatic haemorrhage at 30 mg/kg, bid oral gavage for 5 days measured after 12 hrs of APAP injection
Assay type: functional, organism-based
Details: time 5.0 day

Row | Structure (SMILES) | Activity
9 | O=C(O)c1ccc(OCc2ccc(OCc3c(-c4c(Cl)cccc4Cl)noc3C3CC3)cc2)cc1 | Active
10 | O=C(O)c1cccc(NC(=O)c2ccc(Oc3ccccc3)cc2)c1 | Active
11 | O=C(O)c1cccc(NC(=O)c2cccc(-c3ccccc3)c2)c1 | Active

Target: T1, Bile acid receptor (Mus musculus)
Assay: In vivo agonist activity at FXR in C57BL/6 mouse assessed as upregulation of IBABP mRNA expression at 30 mg/kg, bid ip measured after 5 days by RT-PCR method
Assay type: functional, organism-based
Details: time 5.0 day

Row | Structure (SMILES) | Activity
12 | O=C(O)c1cccc(NC(=O)c2cccc(-c3ccccc3)c2)c1 | Active

Tested on: Mus musculus
Assay: Hepatoprotective activity in APAP-induced C57BL/6 mouse liver injury model assessed as decrease in serum AST levels at 30 mg/kg, bid oral gavage measured after 5 days
Assay type: functional, organism-based
Details: time 5.0 day

Row | Structure (SMILES) | Activity
13 | O=C(O)c1ccc(OCc2ccc(OCc3c(-c4c(Cl)cccc4Cl)noc3C3CC3)cc2)cc1 | Active
14 | O=C(O)c1cccc(NC(=O)c2ccc(Oc3ccccc3)cc2)c1 | Active
15 | O=C(O)c1cccc(NC(=O)c2cccc(-c3ccccc3)c2)c1 | Active

Tested on: Mus musculus
Assay: Hepatoprotective activity in APAP-induced C57BL/6 mouse liver injury model assessed as decrease in […] at 30 mg/kg, bid oral gavage measured after 5 days
Assay type: functional, organism-based
Details: time 5.0 day

Row | Structure (SMILES) | Activity
16 | O=C(O)c1cccc(NC(=O)c2cccc(-c3ccccc3)c2)c1 | Active

Tested on: Mus musculus
Assay: Hepatoprotective activity in APAP-induced C57BL/6 mouse liver injury model assessed as decrease in serum LDH levels at 30 mg/kg, bid oral gavage measured after 5 days
Assay type: functional, organism-based
Details: time 5.0 day

Row | Structure (SMILES) | Activity
17 | O=C(O)c1ccc(OCc2ccc(OCc3c(-c4c(Cl)cccc4Cl)noc3C3CC3)cc2)cc1 | Active
18 | O=C(O)c1cccc(NC(=O)c2ccc(Oc3ccccc3)cc2)c1 | Active
19 | O=C(O)c1cccc(NC(=O)c2cccc(-c3ccccc3)c2)c1 | Active

Target: T1, Bile acid receptor (Mus musculus)
Assay: In vivo agonist activity at FXR in C57BL/6 mouse assessed as increase of UGT1A1 mRNA expression at 30 mg/kg, bid ip measured after 5 days by RT-PCR method
Assay type: functional, organism-based
Details: time 5.0 day

Row | Structure (SMILES) | Activity
20 | O=C(O)c1cccc(NC(=O)c2cccc(-c3ccccc3)c2)c1 | Active

Tested on: Mus musculus
Assay: Hepatoprotective activity in APAP-induced C57BL/6 mouse liver injury model assessed as increase in catalase mRNA expression at 30 mg/kg, bid oral gavage measured after 5 days by qRT-PCR method
Assay type: functional, organism-based
Details: time 5.0 day

Row | Structure (SMILES) | Activity
21 | O=C(O)c1cccc(NC(=O)c2cccc(-c3ccccc3)c2)c1 | Active

Tested on: Mus musculus
Assay: Hepatoprotective activity in APAP-induced C57BL/6 mouse liver injury model assessed as decrease in serum ALT levels at 30 mg/kg, bid oral gavage measured after 5 days
Assay type: functional, organism-based
Details: time 5.0 day

Row | Structure (SMILES) | Activity
22 | O=C(O)c1ccc(OCc2ccc(OCc3c(-c4c(Cl)cccc4Cl)noc3C3CC3)cc2)cc1 | Active
23 | O=C(O)c1cccc(NC(=O)c2ccc(Oc3ccccc3)cc2)c1 | Active
24 | O=C(O)c1cccc(NC(=O)c2cccc(-c3ccccc3)c2)c1 | Active

Target: T2, Bile acid receptor (Homo sapiens, UniProt Q96RI1)
T2 sequence (Q96RI1 whole entry): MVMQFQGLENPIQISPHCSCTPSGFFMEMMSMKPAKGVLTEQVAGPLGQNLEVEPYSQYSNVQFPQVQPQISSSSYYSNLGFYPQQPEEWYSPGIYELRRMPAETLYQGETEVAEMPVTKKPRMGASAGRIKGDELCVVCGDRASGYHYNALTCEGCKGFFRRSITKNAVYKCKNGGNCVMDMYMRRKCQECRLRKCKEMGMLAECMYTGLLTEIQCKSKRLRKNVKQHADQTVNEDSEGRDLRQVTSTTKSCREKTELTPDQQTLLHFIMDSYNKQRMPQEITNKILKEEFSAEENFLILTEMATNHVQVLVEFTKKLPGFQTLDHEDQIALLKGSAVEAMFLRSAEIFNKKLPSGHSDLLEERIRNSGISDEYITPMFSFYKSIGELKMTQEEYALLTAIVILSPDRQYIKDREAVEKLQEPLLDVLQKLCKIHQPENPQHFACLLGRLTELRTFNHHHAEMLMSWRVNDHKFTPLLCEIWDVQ
Assay: Agonist activity at FXR-LBD (unknown origin) assessed by ligand binding ability incubated for 3 hrs in absence of light measured by TR-FRET Coactivator assay
Details: not given

Row | Structure (SMILES) | pEC50
25 | COc1ccccc1C(=O)Nc1ccc(C)c(C(=O)O)c1 | < 5.00
26 | Cc1ccc(NC(=O)c2cccc(C(=O)O)c2)cc1 | < 5.00
27 | O=C(O)c1cccc(NC(=O)c2nc(-c3ccccc3)cs2)c1 | 5.54
28 | O=C(Nc1ccccc1C(=O)O)c1ccc(Oc2ccccc2)cc1 | < 5.00
29 | COc1ccccc1C(=O)Nc1cccc(C(=O)O)c1 | < 5.00
30 | CC(C)(Oc1cccc(NC(=O)c2ccc(Oc3ccccc3)cc2)c1)C(=O)O | < 5.00
31 | O=C(O)c1ccc(NC(=O)c2ccc(Oc3ccccc3)cc2)cc1 | < 5.00
32 | CC(Oc1cccc(NC(=O)c2ccc(Oc3ccccc3)cc2)c1)C(=O)O (stereo unspecified) | < 5.00

Stronger by pEC50, values ahead:

Row | pEC50 | Structure (SMILES)
33 | 5.56 | CC(C)CCOc1cccc(C(=O)Nc2cccc(C(=O)O)c2)c1
34 | 5.60 | CCCCCOc1cccc(C(=O)Nc2cccc(C(=O)O)c2)c1
35 | 5.67 | CCCOc1cccc(C(=O)Nc2cccc(C(=O)O)c2)c1
36 | 6.50 | O=C(O)c1cccc(NC(=O)c2ccc(OCc3cccc(-c4ccccc4)c3)cc2)c1
37 | 6.58 | O=C(O)c1ccc(OCc2ccc(OCc3c(-c4c(Cl)cccc4Cl)noc3C3CC3)cc2)cc1
38 | 6.59 | CCCCOc1cccc(-c2cccc(C(=O)Nc3cccc(C(=O)O)c3)c2)c1
39 | 6.67 | CC(C)CCOc1ccc(C(=O)Nc2cccc(C(=O)O)c2)cc1
40 | 7.01 | O=C(O)c1cccc(NC(=O)c2ccc(Oc3ccccc3)cc2)c1
41 | 7.17 | Cc1ccccc1-c1cccc(C(=O)Nc2cccc(C(=O)O)c2)c1
42 | 7.60 | O=C(O)c1cccc(NC(=O)c2cccc(-c3ccccc3)c2)c1

Tested on: Mus musculus
Assay: Hepatoprotective activity in APAP-induced C57BL/6 mouse liver injury model assessed as increase in GSH levels at 30 mg/kg, bid oral gavage measured after 5 days
Assay type: functional, organism-based
Details: time 5.0 day

Row | Structure (SMILES) | Activity
43 | O=C(O)c1cccc(NC(=O)c2cccc(-c3ccccc3)c2)c1 | Active

Tested on: Mus musculus
Assay: Hepatoprotective activity in APAP-induced C57BL/6 mouse liver injury model assessed as increase in SOD1 mRNA expression at 30 mg/kg, bid oral gavage measured after 5 days by qRT-PCR method
Assay type: functional, organism-based
Details: time 5.0 day

Row | Structure (SMILES) | Activity
44 | O=C(O)c1cccc(NC(=O)c2cccc(-c3ccccc3)c2)c1 | Active

Target: T1, Bile acid receptor (Mus musculus)
Assay: In vivo agonist activity at FXR in C57BL/6 mouse assessed as upregulation of SHP mRNA expression at 30 mg/kg, bid ip measured after 5 days by RT-PCR method
Assay type: functional, organism-based
Details: time 5.0 day

Row | Structure (SMILES) | Activity
45 | O=C(O)c1cccc(NC(=O)c2cccc(-c3ccccc3)c2)c1 | Active

Target: T1, Bile acid receptor (Mus musculus)
Assay: In vivo agonist activity at FXR in C57BL/6 mouse assessed as decrease of CYP7A1 mRNA expression at 30 mg/kg, bid ip measured after 5 days by RT-PCR method
Assay type: functional, organism-based
Details: time 5.0 day

Row | Structure (SMILES) | Activity
46 | O=C(O)c1cccc(NC(=O)c2cccc(-c3ccccc3)c2)c1 | Active

Tested on: Mus musculus
Assay: Hepatoprotective activity in APAP-induced C57BL/6 mouse liver injury model assessed as increase in Gpx1 mRNA expression at 30 mg/kg, bid oral gavage measured after 5 days by qRT-PCR method
Assay type: functional, organism-based
Details: time 5.0 day

Row | Structure (SMILES) | Activity
47 | O=C(O)c1cccc(NC(=O)c2cccc(-c3ccccc3)c2)c1 | Active

Target: T1, Bile acid receptor (Mus musculus)
Assay: In vivo agonist activity at FXR in C57BL/6 mouse assessed as upregulation of OST beta mRNA expression at 30 mg/kg, bid ip measured after 5 days by RT-PCR method
Assay type: functional, organism-based
Details: time 5.0 day

Row | Structure (SMILES) | Activity
48 | O=C(O)c1cccc(NC(=O)c2cccc(-c3ccccc3)c2)c1 | Active

Tested on: Mus musculus
Assay: Hepatoprotective activity in APAP-induced C57BL/6 mouse liver injury model assessed as decrease in hepatic degeneration at 30 mg/kg, bid oral gavage for 5 days measured after 12 hrs of APAP injection
Assay type: functional, organism-based
Details: time 5.0 day

Row | Structure (SMILES) | Activity
49 | O=C(O)c1ccc(OCc2ccc(OCc3c(-c4c(Cl)cccc4Cl)noc3C3CC3)cc2)cc1 | Active
50 | O=C(O)c1cccc(NC(=O)c2ccc(Oc3ccccc3)cc2)c1 | Active
51 | O=C(O)c1cccc(NC(=O)c2cccc(-c3ccccc3)c2)c1 | Active

Tested on: Mus musculus
Assay: Hepatoprotective activity in APAP-induced C57BL/6 mouse liver injury model assessed as decrease in hepatic necrosis at 30 mg/kg, bid oral gavage for 5 days measured after 12 hrs of APAP injection
Assay type: functional, organism-based
Details: time 5.0 day

Row | Structure (SMILES) | Activity
52 | O=C(O)c1ccc(OCc2ccc(OCc3c(-c4c(Cl)cccc4Cl)noc3C3CC3)cc2)cc1 | Active
53 | O=C(O)c1cccc(NC(=O)c2ccc(Oc3ccccc3)cc2)c1 | Active
54 | O=C(O)c1cccc(NC(=O)c2cccc(-c3ccccc3)c2)c1 | Active

Target: T1, Bile acid receptor (Mus musculus)
Assay: In vivo agonist activity at FXR in C57BL/6 mouse assessed as increase of BSEP mRNA expression at 30 mg/kg, bid ip measured after 5 days by RT-PCR method
Assay type: functional, organism-based
Details: time 5.0 day

Row | Structure (SMILES) | Activity
55 | O=C(O)c1cccc(NC(=O)c2cccc(-c3ccccc3)c2)c1 | Active

Tested on: Mus musculus
Assay: Hepatoprotective activity in APAP-induced C57BL/6 mouse liver injury model assessed as increase in Gclm mRNA expression at 30 mg/kg, bid oral gavage measured after 5 days by qRT-PCR method
Assay type: functional, organism-based
Details: time 5.0 day

Row | Structure (SMILES) | Activity
56 | O=C(O)c1cccc(NC(=O)c2cccc(-c3ccccc3)c2)c1 | Active
